Assay results: patent US20230091472A1, “GALECTIN-3 INHIBITING C-GLYCOSIDE KETONES, ETHERS, AND ALCOHOLS” (GLYCOMIMETICS, INC., priority 2019, published 2023)

Target: T1, galectin-3 (Homo sapiens, UniProt P17931)
T1 construct: purchased IBL IBATGPO414
Test: Galectin-3 Activity - ELISA Assay (inhibition of binding of galectin-3 to a Galβ1-3GlcNAc carbohydrate structure)
Conditions: competitive ELISA; galectin-3 binding to immobilized Galβ1-3GlcNAcβ1-3Galβ1-4GlcNAcβ-PAA-biotin polymer; A450 readout; read-out: IC50 (μM), Galectin-3 Antagonist Activity
Method: Galectin-3 antagonists were evaluated for their ability to inhibit binding of galectin-3 to a Galβ1-3GlcNAc carbohydrate structure. The detailed protocol was as follows. A 1 ug/mL suspension of a Galβ1-3GlcNAcβ1-3Galβ1-4GlcNAcβ-PAA-biotin polymer (Glycotech, catalog number 01-096) was prepared. A 100 uL aliquot of the polymer was added to the wells of a 96-well streptavidin-coated plate (R&D Systems, catalog number CP004). A 100 uL aliquot of 1× Tris Buffered Saline (TBS, Sigma, catalog number T5912-10X) was added to control wells. The polymer was allowed to bind to the streptavidin-coated wells for 1.5 hours at room temperature. The contents of the wells were discarded and 200 uL of 1×TBS containing 1% bovine serum albumin (BSA) was added to each well as a blocking reagent and the plate was kept at room temperature for 30 minutes. The wells were washed three times with 1×TBS containing 0.1% BSA. A serial dilution of test compounds was prepared in a separate V-bottom plate (Corning, catalog number 3897). A 75 uL aliquot of the highest concentration of the compound to be tested was added to the first well in a column of the V-bottom plate then 15 ul were serially transferred into 60 uL 1×TBS through the remaining wells in the column to generate a 1 to 5 serial dilution. A 60 uL aliquot of 2 ug/mL galectin-3 (IBL, catalog number IBATGPO414) was added to each well in the V-bottom plate. A 100 uL aliquot of the galectin-3/test compound mixture was transferred from the V-bottom plate into the assay plate containing the Galβ1-3GlcNAc polymer. Four sets of control wells in the assay plate were prepared in duplicate containing 1) both Galβ1-3GlcNAc polymer and galectin-3, 2) neither the polymer nor galectin-3, 3) galectin-3 only, no polymer, or 4) polymer only, no galectin-3. The plate was gently rocked for 1.5 hours at room temperature. The wells were washed four times with TBS/0.1% BSA. A 100 uL aliquot of anti-galectin-3 antibody conjugated to horse radish peroxidase (R&D Systems, from DGAL30 kit) was added to each well and the plate was kept at room temperature for 1 hour. The wells were washed four times with TBS/0.1% BSA. A 100 uL aliquot of TMB substrate solution was added to each well. The TMB substrate solution was prepared by making a 1:1 mixture of TMB Peroxidase Substrate (KPL, catalog number 5120-0048) and Peroxidase Substrate Solution B (KPL, catalog number 5120-0037). The plate was kept at room temperature for 10 to 20 minutes. The color development was stopped by adding 100 uL 10% phosphoric acid (RICCA Chemical Co., catalog number 5850-16). The absorbance at 450 nm (A450) was measured using a FlexStation 3 plate reader (Molecular Devices). Plots of A450 versus test compound concentration and IC50 determinations were made using GraphPad Prism 6.

T1 sequence (P17931 whole entry): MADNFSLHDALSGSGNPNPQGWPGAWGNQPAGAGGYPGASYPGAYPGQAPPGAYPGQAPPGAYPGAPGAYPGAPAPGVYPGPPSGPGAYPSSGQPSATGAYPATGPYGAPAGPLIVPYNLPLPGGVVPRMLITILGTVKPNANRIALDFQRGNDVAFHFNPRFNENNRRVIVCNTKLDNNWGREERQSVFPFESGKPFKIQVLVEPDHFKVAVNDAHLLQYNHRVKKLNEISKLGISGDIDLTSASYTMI

| IC50 | SMILES |
| --- | --- |
| 0.32 µM | CC(=O)[C@@H](OCc1ccc(Br)cc1)[C@@H]1OC(CO)[C@H](O)C(n2cc(-c3cc(F)c(F)c(F)c3)nn2)C1O (stereo partly drawn) [Compound 16] |
| 0.82 µM | COC1C(n2cc(-c3cc(F)c(F)c(F)c3)nn2)[C@@H](O)C(CO)O[C@H]1[C@H](OCc1ccc(Cl)cc1)C(C)=O (stereo partly drawn) [Compound 32] |
| 0.63 µM | COC1C(n2cc(-c3cc(F)c(F)c(F)c3)nn2)[C@@H](O)C(CO)O[C@H]1[C@H](OCc1ccc(Cl)cc1)C(=O)CC(C)C (stereo partly drawn) [Compound 33] |
| 0.84 µM | COC1C(n2cc(-c3cc(F)c(F)c(F)c3)nn2)[C@@H](O)C(CO)O[C@H]1[C@H](OCc1ccc(Cl)cc1)C(=O)c1cccs1 (stereo partly drawn) [Compound 34] |
| 0.75 µM | CCC(=O)[C@@H](OCc1ccc(Cl)cc1)[C@@H]1OC(CO)[C@H](O)C(n2cc(-c3cc(F)c(F)c(F)c3)nn2)C1OC (stereo partly drawn) [Compound 35] |
| 0.59 µM | COC1C(n2cc(-c3cc(F)c(F)c(F)c3)nn2)[C@@H](O)C(CO)O[C@H]1[C@H](OCc1ccc(Cl)cc1)[C@@H](C)O (stereo partly drawn) [Compound 41] |
| 57 µM | COC1C(n2cc(-c3cc(F)c(F)c(F)c3)nn2)[C@@H](O)C(CO)O[C@H]1[C@H](OCc1ccc(C(F)(F)F)nc1)C(C)(C)O (stereo partly drawn) [Compound 44] |
| 0.32 µM | CCC(=O)[C@@H](OCc1ccc(Cl)cc1)[C@@H]1OC(CO)[C@H](O)C(n2cc(-c3cc(F)c(F)c(F)c3)nn2)C1O (stereo partly drawn) [Compound 74] |
| 1.18 µM | COC1C(n2cc(-c3cc(F)c(F)c(F)c3)nn2)[C@@H](O)C(CO)O[C@H]1[C@H](OCc1ccc(Cl)cc1)C(=O)C1CC1 (stereo partly drawn) [Compound 75] |
| 0.66 µM | [2H]C([2H])([2H])OC1C(n2cc(-c3cc(F)c(F)c(F)c3)nn2)[C@@H](O)C(CO)O[C@H]1[C@H](OCc1ccc(Cl)cc1)C(=O)C([2H])([2H])C([2H])([2H])[2H] (stereo partly drawn) [Compound 76] |
| 1.09 µM | [2H]C([2H])([2H])OC1C(n2cc(-c3cc(F)c(F)c(F)c3)nn2)[C@@H](O)C(CO)O[C@H]1[C@H](OCc1ccc(Cl)cc1)C(C)=O (stereo partly drawn) [Compound 77] |
| 0.5 µM | [2H]C([2H])([2H])OC1C(n2cc(-c3cc(F)c(F)c(F)c3)nn2)[C@@H](O)C(CO)O[C@H]1[C@H](OCc1ccc(Br)cc1)C(=O)C([2H])([2H])C([2H])([2H])[2H] (stereo partly drawn) [Compound 78] |
| 1.76 µM | [2H]C([2H])([2H])OC1C(n2cc(-c3cc(F)c(F)c(F)c3)nn2)[C@@H](O)C(CO)O[C@H]1[C@H](OCc1ccc(Br)cc1)C(=O)c1ccc(F)cc1 (stereo partly drawn) [Compound 79] |
| 0.44 µM | [2H]C([2H])([2H])OC1C(n2cc(-c3cc(F)c(F)c(F)c3)nn2)[C@@H](O)C(CO)O[C@H]1[C@H](OCc1ccc(Br)cc1)C(=O)c1ccsc1 (stereo partly drawn) [Compound 80] |
| 3.21 µM | [2H]C([2H])([2H])OC1C(n2cc(-c3cc(F)c(F)c(F)c3)nn2)[C@@H](O)C(CO)O[C@H]1[C@H](OCc1ccc(Br)cc1)C(=O)c1ccc(Cl)s1 (stereo partly drawn) [Compound 81] |
